From article PMC5890937 (European journal of medicinal chemistry, 2017)
Several values for one entry are separate records, joined by “and”; a condition that tells them apart may be missing. Identical values can stand only once.

How the values were obtained:
[1] = molecular target: T1, HDAC6 (Homo sapiens, UniProt Q9UBN7); experiment: ELISA-based HDAC activity assay, HDAC6; type: biochemical; details: for fold selectivity for HDAC6 and HDAC8 over HDAC1, 2, and 3 / HDAC6 selectivity over HDAC1, 2, and 3: from IC50 values; for isoform selectivity in single concentration screen (HDAC6 versus HDAC1, 2, 3): 1a-f at 0.75, 0.75, 2.5, 1.25, 2.5, and 5 μM, SAHA at 1 μM
T1 sequence (Q9UBN7 1-1215): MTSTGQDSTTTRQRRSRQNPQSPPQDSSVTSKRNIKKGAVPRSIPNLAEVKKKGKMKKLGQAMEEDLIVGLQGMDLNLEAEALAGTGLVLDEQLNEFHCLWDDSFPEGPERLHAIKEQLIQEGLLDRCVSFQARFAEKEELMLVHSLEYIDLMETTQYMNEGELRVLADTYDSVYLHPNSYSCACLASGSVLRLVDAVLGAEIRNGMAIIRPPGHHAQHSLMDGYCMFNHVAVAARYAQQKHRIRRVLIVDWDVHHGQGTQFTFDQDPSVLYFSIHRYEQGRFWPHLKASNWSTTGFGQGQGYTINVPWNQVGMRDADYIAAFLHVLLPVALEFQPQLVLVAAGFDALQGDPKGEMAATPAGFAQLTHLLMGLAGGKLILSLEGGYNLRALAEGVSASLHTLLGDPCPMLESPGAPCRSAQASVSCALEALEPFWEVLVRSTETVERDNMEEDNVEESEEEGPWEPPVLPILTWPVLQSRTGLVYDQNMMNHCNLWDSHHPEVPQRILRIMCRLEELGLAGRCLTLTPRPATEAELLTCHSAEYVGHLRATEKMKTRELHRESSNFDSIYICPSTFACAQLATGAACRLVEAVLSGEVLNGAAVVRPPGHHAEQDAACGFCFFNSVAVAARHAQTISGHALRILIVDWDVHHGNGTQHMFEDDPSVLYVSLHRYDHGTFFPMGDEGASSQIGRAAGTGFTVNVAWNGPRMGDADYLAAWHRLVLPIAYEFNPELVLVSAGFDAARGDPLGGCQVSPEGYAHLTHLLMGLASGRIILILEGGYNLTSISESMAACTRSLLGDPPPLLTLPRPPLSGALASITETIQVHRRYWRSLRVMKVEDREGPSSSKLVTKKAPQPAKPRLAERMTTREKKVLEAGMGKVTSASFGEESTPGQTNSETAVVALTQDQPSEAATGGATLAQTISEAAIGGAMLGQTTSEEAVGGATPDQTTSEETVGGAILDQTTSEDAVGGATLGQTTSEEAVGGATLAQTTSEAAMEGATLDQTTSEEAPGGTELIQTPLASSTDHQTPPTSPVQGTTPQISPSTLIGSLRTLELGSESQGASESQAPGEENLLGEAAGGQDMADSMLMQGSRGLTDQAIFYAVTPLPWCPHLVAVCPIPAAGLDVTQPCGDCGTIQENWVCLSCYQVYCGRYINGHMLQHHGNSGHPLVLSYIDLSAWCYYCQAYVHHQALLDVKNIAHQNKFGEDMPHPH

[2] = test system: HDAC8; details: read-out: IC50 with HDAC8; cited from earlier work
[3] = test system: HDAC6; details: cited from earlier work
[4] = test system: HeLa cell lysates; experiment: Global HDAC inhibition with HeLa cell lysates; type: biochemical, human; details: HeLa cell lysates IC50 relative to SAHA
[5] = test system: acetyl-α-tubulin (AcTub); experiment: In cellulo selectivity testing, western blot of acetyl-α-tubulin in U937 cells; type: cell-based, human; details: SAHA 5 μM, 1f 20-60 μM, 18 hours

O=C(CC[C@@H](CCCC(=O)Nc1ccccc1)Cc1ccccc1)NO [(R)-1f, (R)-4-benzyl-N^1-hydroxy-N^8-phenyloctanediamide]
fold selectivity for HDAC6 and HDAC8 over HDAC1, 2, and 3 [1]: 520- to 1300 fold

O=C(CC[C@H](CCCC(=O)Nc1ccccc1)Cc1ccccc1)NO [(S)-1f, (S)-4-benzyl-N^1-hydroxy-N^8-phenyloctanediamide]
fold selectivity for HDAC6 and HDAC8 over HDAC1, 2, and 3 [1]: 240- to 540 fold

O=C(CCCC(CCC(=O)Nc1ccccc1)Cc1ccccc1)NO (centres unmarked) [C5-benzyl SAHA]
IC50 [2]: 0.38 µM | HDAC6/8 selectivity [3]: 8- to 21 fold | IC50 ([3]; read-out: IC50 with HDAC6): 0.27 µM

CC(CCCC(=O)Nc1ccccc1)CCC(=O)NO (centres unmarked) [Compound 1a, N^1-hydroxy-4-methyl-N^8-phenyloctanediamide]
isoform selectivity in single concentration screen (HDAC6 versus HDAC1, 2, 3) [1]: smallest difference in potency | fold less potent compared to SAHA [4]: 18 fold

CCCCCCC(CCCC(=O)Nc1ccccc1)CCC(=O)NO (centres unmarked) [Compound 1d, 4-hexyl-N^1-hydroxy-N^8-phenyloctanediamide]
HDAC6 selectivity over HDAC1, 2, and 3 [1]: at least 210 fold | fold selectivity for HDAC6 and HDAC8 over HDAC1, 2, and 3 [1]: 170- to 480 fold and 210- to 480 fold

O=C(CCC(CCCC(=O)Nc1ccccc1)Cc1ccccc1)NO (centres unmarked) [Compound 1f, 4-benzyl-N^1-hydroxy-N^8-phenyloctanediamide]
isoform selectivity in single concentration screen (HDAC6 versus HDAC1, 2, 3) [1]: greatest difference in potency | HDAC6 selectivity over HDAC1, 2, and 3 [1]: at least 210 fold | fold selectivity for HDAC6 and HDAC8 over HDAC1, 2, and 3 [1]: 210- to 740 fold | levels of acetyl-α-tubulin (HDAC6 substrate) [5]: dose-dependent increase

CCCC(CCC)C(=O)NO [Valpropylhydroxamic acid]
selectivity for HDAC6 and 8 against HDAC1, 2, and 3 [3]: 9-17 fold
